{"source": "patent US7285701B2", "about": "“Cyanobacterial nucleic acid fragments encoding proteins useful for controlling plant traits via nuclear or plastome transformation” (BASF Plant Science GmbH, priority 2001, dated 2007)", "key": {"[1]": {"test_system": "4′-fluoro-6-[(alpha,alpha,alpha,-trifluoro-m-toly)oxy]-picolinamide resistant mutants", "assay": "Cross-resistance test of resistant mutants against other PDS inhibitors", "assay_type": "cell-based, Synechocystis"}, "[2]": {"test_system": "Synechocystis EMS resistant mutant cell lines", "assay": "Dose-response in suspension culture, resistant mutant cell lines", "assay_type": "cell-based, Synechocystis PCC6803", "settings": "seven days, read-out: I50", "protocol": "(§1) These experiments also established a dose-response curve. A lethal concentration for resistant mutant selection was 1-2 μM of 4′-fluoro-6-[(alpha,alpha,alpha,-trifluoro-m-toly)oxy]-picolinamide. Dose-response studies were also performed in 96-sell microtiter plates on wild type and putative 4′-fluoro-6-[(alpha,alpha,alpha,-trifluoro-m-toly)oxy]-picolinamide resistant mutants of Synechocystis. The growth of the culture was measured daily at an optical density of 690 nm.\n(§2) For wild type cells (WT), the growth was inhibited at concentrations of 4′-fluoro-6-[(alpha,alpha,alpha,-trifluoro-m-toly)oxy]-picolinamide of <0.25 μM, with an I50 in the sub μM range. By contrast, the I50 values are between 1-2 μM for 5-1/12E, and in the range of 5-10 μM for 7-3/12F and 7-4/12F, respectively.\n(§3) Wild type cells were inhibited at concentrations of <0.25 uM 4′-fluoro-6-[(alpha,alpha,alpha,-trifluoro-m-toly)oxy]-picolinamide, with an I50 in the sub μM range. In contrast I50 values are between 1-2 μM for 5-1/12E and 5-1/12F, and between 5-10 μM for 7-3/12F and […]. Thus, because the cell lines with the mutant pds genes are far more resistant than wild type cell lines, there is evidence that the selected cultures contain 4′-fluoro-6-[(alpha,alpha,alpha,-trifluoro-m-toly)oxy]-picolinamide resistance."}, "[3]": {"test_system": "wild type Synechocystis", "assay": "Dose-response in liquid/suspension culture, wild type Synechocystis", "assay_type": "cell-based, Synechocystis PCC6803", "protocol": "(§4) To identity a target site gene activity, two types of Bluegreen algae, Synechocystis PCC 6803 (American Type Culture Collection, Rockville, Md.) and Anabaena PCC 7120 (American Type Culture Collection, Rockville, Md.) can be used for the screen. One is grown in microtiter dishes in BG-11 medium supplemented with various concentrations of the test compounds. Inhibition of growth can be monitored by visual inspection after two to three days of culture. Quantitative growth measurements can be taken photometrically starting one day after inoculation.\nas §1, §2, §3"}, "[4]": {"test_system": "wild type Synechocystis PCC6803", "assay": "Paper disc assay on BG-11 agar, wild type Synechocystis", "assay_type": "cell-based", "source_text": "(§5) Alternatively screens can be performed on agar plates with “lawns” of cyanobacteria and paper discs impregnated with test compounds. In this case, zones of inhibited growth around paper discs can be detected after two or three days.\n(§6) To set up the assay, wild type cells of Synechocystis were mixed with equal volumes of 2× top agar and 2× BG-11 and overlaid on top of BG-11 agar plate. Cells normally appear in 3-5 days after plating. This method will yield an even and uniform lawn of cells. Upon solidifying, test compounds are then spotted on Whatman filter paper disc before being placed on agar plates. Four compounds can be tested on a single plate. Using this screening, in an example employing 160 different compounds, predominantly compounds of novel mode of action, have been tested on this microbe, and on average, 25% of the compounds show at least some activity.\nSusceptibility of Synechocystis to 4′-fluoro-6-[(alpha,alpha,alpha,-trifluoro-m-toly)oxy]-picolinamide was tested using a paper disc assay in which 4′-fluoro-6-[(alpha,alpha,alpha,-trifluoro-m-toly)oxy]-picolinamide was spotted in a paper disc before being placed on a lawn of cells. In determining susceptibility, the size of the zone of inhibition is indicative of the potency of the compound.\n(§7) A rapid plate based assay for screening and identifying active compounds is then performed. Wild type cells of Synechocystis are mixed with equal volumes of 2× top agar and 2× BG-11. The mixture is then overlaid on top of a BG-11 agar plate. Cells normally appear 3-5 days after plating. This method will yield an even and uniform lawn of cells.\n(§8) After solidification of the agar, test compounds were spotted on Whatman filter paper disc, and then were placed on agar plates. Four different compounds were tested on a single plate. Using this screening method, 160 different compounds were tested, predominantly compounds of novel mode of action. On average, 25% of the compounds show at least some activity.\nThe resistant phenotype of selected mutant cell lines was further tested in solid medium as well as in suspension cultures. […]"}, "[5]": {"test_system": "Synechocystis PCC 6803", "assay": "Susceptibility of Synechocystis PCC 6803 to known herbicides (Table 2)", "assay_type": "cell-based", "protocol": "as §4, §5, §6\nA rapid plate based assay for screening lead compounds was developed as follows. First, either one of two types of bluegreen algae, Synechocystis PCC6803 and Anabaen PC 7120 were grown in microtitre dishes containing BG-11 supplemented with various concentrations of 160 different test compounds. Alternatively, screens can be performed on agar plates with lawns of cyanobacteria and paper discs impregnated with test compounds.\nas §7, §8\nCyanobacteria are a particularly useful source of genes for enhancing crop performance due to their similarity, and ancestral connection, to plant chloroplasts. In particular, cyanobacterial genes may be useful for transformation directly into the chloroplast genome due to similarities in genetic elements. Similarities in cyanobacterial genes and proteins to those from chloroplasts can carry over to a shared susceptibility to herbicides."}, "[6]": {"test_system": "Anabaena AHAS", "assay": "In vitro AHAS assay", "assay_type": "biochemical, Anabaena PCC7120", "settings": "100 nM", "protocol": "(§9) AHAS is the target site of both PURSUIT® imazethapyr and OUST® sulfometuron methyl herbicides. To determine if resistance to the herbicides is due to a natural resistance to inhibition of the acetohydroxyacid synthase enzymes from the cyanobacteria, or if it is due to alternative mechanisms (e.g. lack of entry into the cell), the in vitro activity of the AHAS enzyme in the presence of the herbicides was tested.\n(§10) AHAS assays were performed with slight modification as described by Singh et. al (Singh B K, Stidham M A, Shaner D L, 1988, Assay for acetohydroxyacid synthase from plants. Anal Biochem 171: 173-179).\n(§11) Synechocystis PCC6803 and Anabaena PCC7120 were cultured in 1.5 L of BG-11 media. Cells were collected by centrifuge and stored frozen at −80° C. Frozen cells were thawed and placed in a 30 mL Bead Beater cell disruptor chamber (BioSpec Corp Bartlesville, Okla.). Seven mL of acid washed sand was added. The chamber was filled with 2× ASHA assay buffer, consisting of 100 mM HEPES pH7.0, 200 mM pyruvate, 20 mM MgCl2, 2 mM TPP (Thiamine pyrophosphate) and 100 μM FAD (flavin adenine dinucleotide).\n(§12) The Bead Beater cell disruptor was packed in ice and turned on for 10 seconds, followed by cooling for 3 minutes. This cycle was repeated five times. The extract was transferred into a centrifuge tube, and spun in a Beckman SA20 (Beckman, Fullerton, Calif.) rotor for 15 minutes at 17,000 rpms. […]"}, "[7]": {"test_system": "Synechocystis PCC6803", "assay": "In vivo growth in BG-11 media with commercial herbicides", "assay_type": "cell-based", "settings": "100 nM, one week of culture in BG-11 media", "protocol": "(§13) In vivo resistance of cyanobacteria to PURSUIT® imazethapyr and OUST® sulfometuron methyl. As a preliminary matter, Synechocystis PCC6803 and Anabaenia PCC7120 were tested for susceptibility to PURSUIT® imazethapyr and OUST® sulfometuron methyl. AHAS genes which are resistant to these herbicides are excellent candidates for transformation in plant plastomes and nuclear genomes. Such transformants can be used in a weed control strategy using a combination of transgenic herbicide resistant crops and herbicides.\n(§14) In vivo testing of Synechocystis PCC6803 and Anabaena PCC7120 was done by culturing the organisms in varying concentrations of the commercial herbicides. […] For relative comparison purposes a concentration of 1 μM PURSUIT® imazethapyr in agar media is lethal to Arabidopsis plants."}, "[8]": {"test_system": "Anabaena PCC7120", "assay": "In vivo growth in BG-11 media with commercial herbicides", "assay_type": "cell-based", "settings": "100 nM, one week of culture in BG-11 media", "protocol": "as §13, §14"}, "[9]": {"test_system": "E. coli M1262 expressing the cyanobacterial ahas gene", "assay": "Growth on minimal media of E. coli M1262 expressing the cyanobacterial ahas gene", "assay_type": "cell-based", "source_text": "To confirm that these plasmids carry functional AHAS sequences, plasmid DNA from each of the ten rescued colonies was transformed into the E. coli strain M1262. (leuB6, ilv1614, ilvH612, λ^−, relA1, spoT1, ilvB619, ilvG603, ilfG605(am), thi-1) (Genetics Stock Center, Yale University). This strain of E. coli is lacking in AHAS. […] The ahas gene can therefore be used for achieving herbicide tolerance in crops by transformation into the nuclear or plastidic genome."}, "[10]": {"test_system": "Synechocystis AHAS", "assay": "In vitro AHAS assay", "assay_type": "biochemical, Synechocystis PCC6803", "settings": "100 nM", "protocol": "as §9, §10, §11, §12"}, "[11]": {"settings": "wild type cells, suspension culture, seven days"}}, "note": "Where two headings read alike, the source gives them in different places."}
{"smiles": "O=C(Nc1cccc2c1C(=O)c1cccc(NC(=O)c3cc(C(=O)Nc4cccc5c4C(=O)c4cccc(NC(=O)c6ccccc6)c4C5=O)c(C(=O)Nc4cccc5c4C(=O)c4cccc(NC(=O)c6ccccc6)c4C5=O)cc3C(=O)Nc3cccc4c3C(=O)c3cccc(NC(=O)c5ccccc5)c3C4=O)c1C2=O)c1ccccc1", "note": "[1,2,4,5-benzenetetracarboxamide,N,N′,N″,N′″-tetrakis[5-(benzoylamino)-9,10-dihydro-9,10-dioxo-1-anthracenyl]]", "values": [{"measurement": "cross-resistance of the resistant mutants", "setting": "[1]", "value": "exhibited cross-resistance"}]}
{"smiles": "O=C(Nc1ccc(F)cc1)c1cccc(Oc2cccc(C(F)(F)F)c2)n1", "note": "[4′-fluoro-6-[(alpha,alpha,alpha,-trifluoro-m-toly)oxy]-picolinamide]", "values": [{"measurement": "IC50", "setting": "[2]; mutant 5-1/12E", "value": "1 to 2", "unit": "µM"}, {"measurement": "IC50", "setting": "[2]; mutant 5-1/12F", "value": "1 to 2", "unit": "µM"}, {"measurement": "IC50", "setting": "[2]; mutant 5-4/12F", "value": "5 to 10", "unit": "µM"}, {"measurement": "IC50", "setting": "[2]; mutant 7-3/12F", "value": "5 to 10", "unit": "µM"}, {"measurement": "IC50", "setting": "[2]; mutant 7-4/12F", "value": "5 to 10", "unit": "µM"}, {"measurement": "I50 of growth inhibition", "setting": "[3]; liquid cultures", "value": "lower sub-micromolar range"}, {"measurement": "I50", "setting": "[3]; [11]", "value": "sub μM range"}, {"measurement": "concentration at which growth was inhibited", "setting": "[3]; [11]", "value": "< 0.25", "unit": "µM"}, {"measurement": "concentrations active against Synechocystis PCC6803", "setting": "[4]; BG-11 solid medium, paper disc assay", "value": "1 to 2", "unit": "µM"}, {"measurement": "lethal concentration for resistant mutant selection", "setting": "[4]; Synechocystis", "value": "1 to 2", "unit": "µM"}, {"measurement": "growth of wild type Synechocystis", "setting": "[4]; paper disc assay, 0.5 nmol", "value": "significantly inhibited"}]}
{"smiles": "CC(=O)/C(C(=O)c1ccc(Cl)cc1Cl)=C(/N)SCc1ccccc1", "note": "[(2E)-2-[amino(benzylsulfanyl)methylene]-1-(2,4-dichlorophenyl)-1,3-butanedione]", "values": [{"measurement": "cross-resistance of the resistant mutants", "setting": "[1]", "value": "exhibited cross-resistance"}]}
{"smiles": "N#Cc1cc(Br)c(O)c(Br)c1", "note": "[Bromoxynil]", "values": [{"measurement": "Activity Rating (++ = highest)", "setting": "[5]", "value": "+"}]}
{"smiles": "CN(C)C(=O)Nc1ccc(Cl)cc1", "note": "[CMU]", "values": [{"measurement": "Activity Rating (++ = highest)", "setting": "[5]", "value": "+"}]}
{"smiles": "CCOC(=O)Nc1cccc(OC(=O)Nc2ccccc2)c1", "note": "[Desmedipham]", "values": [{"measurement": "Activity Rating (++ = highest)", "setting": "[5]", "value": "++"}]}
{"smiles": "CN(C)C(=O)Nc1ccccc1", "note": "[Fenuron]", "values": [{"measurement": "Activity Rating (++ = highest)", "setting": "[5]", "value": "++"}]}
{"smiles": "CN(C)C(=O)Nc1ccc(Cl)cc1", "note": "[Monuron]", "values": [{"measurement": "Activity Rating (++ = highest)", "setting": "[5]", "value": "++"}]}
{"smiles": "COC(=O)c1ccccc1S(=O)(=O)NC(=O)Nc1nc(C)cc(C)n1", "note": "[OUST® sulfometuron methyl, sulfometuron methyl]", "values": [{"measurement": "inhibition of AHAS enzyme", "setting": "[6]", "value": "No significant inhibition"}, {"measurement": "inhibition of growth", "setting": "[7]", "value": "No inhibition of growth"}, {"measurement": "inhibition of growth", "setting": "[8]", "value": "No inhibition of growth"}, {"measurement": "growth on minimal media in the presence of the herbicide", "setting": "[9]", "value": "capable of growing"}, {"measurement": "inhibition of AHAS enzyme", "setting": "[10]", "value": "No significant inhibition"}]}
{"smiles": "COC(=O)Nc1cccc(OC(=O)Nc2cccc(C)c2)c1", "note": "[Phenmedipham]", "values": [{"measurement": "Activity Rating (++ = highest)", "setting": "[5]", "value": "++"}]}
{"smiles": "CCNc1nc(Cl)nc(NCC)n1", "note": "[Simazine]", "values": [{"measurement": "Activity Rating (++ = highest)", "setting": "[5]", "value": "++"}]}
{"smiles": "Cc1cc(OCC=C(Cl)Cl)nc(Oc2ccnc(C(F)(F)F)c2)c1", "note": "[pyridine, 2-[(3,3-dichloro-2-propenyl)oxy]-4-methyl-6-[(2-(trifluoromethyl)-4-pyrodinyl]oxy]]", "values": [{"measurement": "cross-resistance of the resistant mutants", "setting": "[1]", "value": "exhibited cross-resistance"}]}
